In publication PMC8231229, “New Trimethoprim-Like Molecules: Bacteriological Evaluation and Insights into Their Action” (Antibiotics, 2021):
Converted amounts (≈) assume the structure as drawn. Like-named read-outs stand apart in the source and are kept apart here. Peptide text beside a SMILES is read from it. * marks the point of attachment. βNA = c1ccc2cc(N*)ccc2c1

Legend:
Serratia marcescens NIMA = test: MIC by microdilution (EUCAST), planktonic bacteria; assay type: cell-based; settings: tested alone
Protocol: (§1) The minimum inhibitory concentrations (MICs) of colistin, TMP, 1a, and 1b were determined using the microdilution method, according to EUCAST recommendations.

E. coli 220560529 = test: Susceptibility test in TMP-resistant strain; assay type: cell-based; settings: data not shown
Protocol: as §1

S. epidermidis 220560752 = test: Susceptibility test in TMP-resistant strain; assay type: cell-based; settings: data not shown
Protocol: as §1

E. coli DHFR = molecular target: T1, E. coli DHFR (Escherichia coli, UniProt P0ABQ4); test: Dihydrofolate reductase assay; assay type: biochemical; settings: inhibitor 5 µM, 30 min incubation
T1 construct: gift of E. Shakhnovich and J.V. Rodrigues (Harvard University)
Protocol: The DHFR assay is based on the reduction of 7,8-dihydrofolate to 5,6,7,8-tetrahydrofolate catalyzed by DHFR and using NADPH as a cofactor. Purified E. coli DHFR was kindly provided by E. Shakhnovich and J.V. Rodrigues (Harvard University, Cambridge, MA, USA). The DHFR assay kit (CS0340) was purchased from Sigma-Aldrich. The assay was performed in 96-well flat-bottom plates (Corning Costar 3606, NY, USA) with the protocol adjusted to accommodate a final reaction volume of 200 µL. DHFR was diluted to a final concentration of 0.03 µg/mL. The inhibitory effect of compounds 1a and 1b was tested, with TMP serving as the control. All three drugs were used at a concentration of 5 µM, which was higher than the respective MICs (Table 1). To determine the effect of the concentration of the DHFR cofactor NADPH on inhibition, a dilution series of NADPH in assay buffer was carried out to obtain a concentration range between 60 µM and 240 µM. A dilution series of H2F was similarly carried out in assay buffer to obtain a concentration range from 50 µM to 200 µM. In all assays, the enzyme was mixed with the different inhibitors and incubated for 30 min before the enzymatic reaction was initiated by the addition of NADPH and H2F. The reaction was conducted at 37 °C and monitored by the decrease in absorbance at 340 nm (indicative of a decrease in the NADPH concentration). […]

HepG2 cells = test: Cytotoxicity assay (resazurin); assay type: cell-based, human
Protocol: (§2) The cytotoxicity assay was carried out in the human hepatocellular carcinoma cell line Hep G2 ATCC and in murine L-929 fibroblasts (NCTC clone 929, ECACC 88102702), based on the experiments described by Vinuesa et al.. The cells were obtained from Dr. Ricardo Pérez-Tomás (Cancer Cell Biology, University of Barcelona). The cytotoxicity of TMP and compounds 1a and 1b was determined by measuring the intracellular reduction of resazurin sodium salt (Sigma-Aldrich, St. Louis, MO, USA). HepG2 and L-929 cells were grown in RPMI 1640 and MEM medium, respectively (Biochrom AG, Berlin, Germany), supplemented with 10% fetal bovine serum. Cells from pre-confluent cultures were harvested with trypsin-EDTA and maintained at 37 °C and 5% CO2. […] Twenty µL of resazurin was then added to each well and the plates were incubated under the same conditions. Fluorescence was measured at an excitation wavelength of 530 nm and an emission wavelength of 590 nm using a scanning multi-well spectrophotometer (FLUOstar OPTIMA, BMG Labtech, Germany). Cytotoxicity was calculated as follows:(1) % Cytotoxicity = 100−(AT−ADB)/(AC−AMB) ×100 where AT is the absorbance of the treated cells, ADB the absorbance of the drug blank control, AC the absorbance of the untreated cells, and ACB the absorbance of the medium blank.

[1] = Cytotoxicity assay (resazurin); assay type: cell-based, murine; settings: mouse, L-929 fibroblasts; 32 μg/mL, 24 h; percentage of dead cells
Protocol: as §2

L-929 cells = test: Cytotoxicity assay (resazurin); assay type: cell-based, murine
Protocol: as §2

[2] = Storage stability checked by HPLC-MS; assay type: physicochemical; settings: for stability of stock solutions in DMSO: kept in the cold; for time after synthesis without signs of decomposition: stored at −20 °C under an inert atmosphere, HPLC-MS
Protocol: Compounds 1a and 1b were prepared as previously reported, from the interaction of TMP with aldehydes and isocyanides in acetonitrile under Yb(OTf)3 catalysis. The compounds were purified by chromatography and stored at −20 °C under an inert atmosphere. Stock solutions in DMSO were stable when kept in the cold. The integrity of these compounds and solutions thereof was confirmed by HPLC-MS (column: ZORBAX Extend-C18 3.5 μm 2.1 × 50 mm, Agilent; mobile phase A: H2O + 0.05% HCOOH; mobile phase B: ACN + 0.05% HCOOH; 10 min; 35 °C). There were no signs of decomposition at least 1 year after their chemical synthesis.

[3] = system: Escherichia coli ATCC 25922; set-up: method as in PMID 31334221; settings: tested alone; cited from earlier work
[4] = system: Pseudomonas aeruginosa PAO1; set-up: method as in PMID 31334221; settings: tested alone; cited from earlier work
S. marcescens NIMA = test: Real-time growth curves with sublethal concentrations; assay type: cell-based; settings: with SMX (1:20), in the presence of colistin
Protocol: (§3) Additionally, the effect of TMP-SMX and the GBBR analogues in combination with sublethal concentrations of colistin was assessed in growth curves of E. coli ATCC 25922, P. aeruginosa PAO1, and S. marcescens NIMA. Exponential-phase cultures were adjusted to 5 × 10^6 CFU/mL in a final volume of 10 mL of TSB and the antimicrobials were added at sublethal concentrations. Growth was monitored using RTS-1C real-time cell growth loggers (Biosan SIA, Riga, Latvia) in cells incubated for 24 h at 37 °C with shaking at 2000 rpm. Growth was measured every 10 min as the optical density (OD 850 nm).

[5] = Cytotoxicity assay (resazurin); assay type: cell-based, human; settings: human, HepG2 cells; 32 μg/mL, 24 h; percentage of dead cells
Protocol: as §2

bacterial growth = system: bacterial growth; set-up: method as in PMID 23722434; settings: concentrations up to 40 µg/mL; cited from earlier work
P. aeruginosa PAO1 [6] = test: MIC in presence or absence of efflux pump inhibitor PAßN; assay type: cell-based; settings: colistin alone
Protocol: The efflux pump inhibitor phenyl-arginyl-β-naphthylamide (PaβN) was purchased from Sigma-Aldrich Chemicals (Madrid, Spain). The MIC of the TMP analogues in combination with SMX in the presence of 20 µg PaβN/mL was determined in P. aeruginosa PAO1 using the microdilution method.

E. coli ATCC 25922 = test: Real-time growth curves with sublethal concentrations; assay type: cell-based; settings: 0.11 µM colistin alone
Protocol: as §3

P. aeruginosa PAO1 [7] = test: as above; assay type: cell-based; settings: 0.87 µM colistin alone
Protocol: as §3

[8] = Homo sapiens, HepG2, 24 h, read-out: IC50 (drug concentration needed to inhibit cell growth by 50%)
[9] = Mus musculus, L929, 24 h, read-out: IC50 (drug concentration needed to inhibit cell growth by 50%)

T1 sequence (P0ABQ4 whole entry): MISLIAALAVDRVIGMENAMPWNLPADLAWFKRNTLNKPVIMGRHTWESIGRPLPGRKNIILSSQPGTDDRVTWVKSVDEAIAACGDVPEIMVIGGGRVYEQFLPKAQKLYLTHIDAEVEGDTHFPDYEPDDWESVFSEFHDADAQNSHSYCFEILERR

Molecule	MIC (Serratia marcescens NIMA; Serratia marcescens)	effect in TMP-resistant strain (E. coli 220560529)	effect in TMP-resistant strain (S. epidermidis 220560752)	inhibition at 5 µM (E. coli DHFR)	IC50 (HepG2 cells; [8])	cytotoxicity at 24 h, 32 μg/mL [1]	IC50 (L-929 cells; [9])	stability of stock solutions in DMSO [2]	time after synthesis without signs of decomposition [2]	MIC [3]	MIC [4]	cytotoxicity at 24 h, 32 μg/mL [5]	further results
COc1cc(Cc2cn3c(NC(C)(C)C)c(C)nc3nc2N)cc(OC)c1OC [Compound 1a]	80.1 µM (≈ 32 µg/mL)	no significant effect	no significant effect	> 80%	> 32 µg/mL	0%	> 32 µg/mL	stable	at least 1 year	1.25 µM (≈ 0.499 µg/mL)	>80.10 µM		
COc1cc(Cc2cn3c(NC4CCCCC4)c(-c4cccnc4)nc3nc2N)cc(OC)c1OC [Compound 1b]	16.4 µM (≈ 8 µg/mL)	no significant effect	no significant effect	> 80%	> 32 µg/mL	0%	> 32 µg/mL	stable	at least 1 year	1.02 µM (≈ 0.498 µg/mL)	>65.50 µM	0.11%	effect on growth curve (S. marcescens NIMA): complete abolition of growth
NC(N)=NCCC[C@H](NC(=O)[C@@H](N)Cc1ccccc1)C(=O)Nc1ccc2ccccc2c1 [PAßN, phenylalanine arginyl ß-naphthylamide] (H-Phe-Arg-βNA)													effect on bacterial growth (bacterial growth): no detectable effect on bacterial growth
COc1cc(Cc2cnc(N)nc2N)cc(OC)c1OC [TMP, Trimethoprim]	13.8 µM (≈ 4 µg/mL)					0.8%				0.43 µM (≈ 0.125 µg/mL)	>110.22 µM	0.35%	IC50 (HepG2 cells; Homo sapiens, HepG2, 24 h; read-out: IC50 (drug concentration needed to inhibit cell growth by 50%)): > 32 µg/mL; IC50 (L-929 cells; Mus musculus, L929, 24 h; read-out: IC50 (drug concentration needed to inhibit cell growth by 50%)): > 32 µg/mL
colistin										0.43 µM	1.73 µM		MIC (Serratia marcescens NIMA): >886.23 µM; MIC With PAßN (P. aeruginosa PAO1 [6]; PAßN 20 µg/mL): 1.73 µM; MIC Without PAßN (P. aeruginosa PAO1 [6]): 1.73 µM; delay in growth (E. coli ATCC 25922): 10 h; delay in growth (P. aeruginosa PAO1 [7]): 2 h
